Test results: ChEMBL document CHEMBL4417641, “Use of 2-(substituted phenylamino)benzoic acid fto inhibitor in treating leukemia” (2018)
Active and inactive are the calls of the source. No cut-off for these calls is given here.

Tests used:
[1] = biological target: Alpha-ketoglutarate-dependent dioxygenase FTO (Homo sapiens, UniProt Q9C0B1); assay: Inhibition of FTO (unknown origin) assessed as reduction in demethylation using 39nt-m6 A-ssDNA and 2OG incubated for 2 hrs by non-denaturing polyacrylamide electrophoresis method
[2] = tested on: NB-4; assay: Cytotoxicity against human NB4 cells assessed as inhibition of cell growth incubated for 72 hrs by MTS assay relative to control; format: functional
[3] = Cytotoxicity against human MM6 cells assessed as inhibition of cell growth incubated for 72 hrs by MTS assay relative to control; format: functional
[4] = tested on: NB-4; assay: Cytotoxicity against human NB4 cells assessed as inhibition of cell growth incubated for 72 hrs by MTS assay; format: functional, cell-based; conditions: NB-4, 72 h
[5] = Cytotoxicity against human MM6 cells assessed as inhibition of cell growth incubated for 72 hrs by MTS assay; format: functional, cell-based
[6] = tested on: NB-4; assay: Cytotoxicity against human NB4 cells assessed as inhibition of cell growth incubated for 48 hrs by MTS assay; format: functional, cell-based; conditions: NB-4, 48 h
[7] = Cytotoxicity against human MM6 cells assessed as inhibition of cell growth incubated for 48 hrs by MTS assay; format: functional, cell-based
[8] = tested on: MONO-MAC-6; assay: Antitumor activity against human MONO-MAC-6 cells xenografted in NSG mouse assessed as mouse survival at 2 mg/kg, ip dosed for ten consecutive days and measured after 40 days post treatment; format: functional; conditions: MONO-MAC-6, ip, 960 h
[9] = tested on: MONO-MAC-6; assay: Antitumor activity against human MONO-MAC-6 cells xenografted in NSG mouse assessed as mouse survival at 2 mg/kg, ip dosed for ten consecutive days and measured after 55 days post treatment; format: functional; conditions: MONO-MAC-6, ip, 1320 h
[10] = tested on: MONO-MAC-6; assay: Antitumor activity against human MONO-MAC-6 cells xenografted in NSG mouse assessed as mouse survival at 2 mg/kg, ip dosed for ten consecutive days and measured after 60 days post treatment; format: functional; conditions: MONO-MAC-6, ip, 1440 h
[11] = tested on: MONO-MAC-6; assay: Antitumor activity against human MONO-MAC-6 cells xenografted in NSG mouse assessed as mouse survival at 2 mg/kg, ip dosed for ten consecutive days and measured after 62 days post treatment; format: functional; conditions: MONO-MAC-6, ip, 1488 h
[12] = tested on: MONO-MAC-6; assay: Antitumor activity against human MONO-MAC-6 cells xenografted in NSG mouse assessed as mouse survival at 2 mg/kg, ip dosed for ten consecutive days and measured after 120 days post treatment; format: functional; conditions: MONO-MAC-6, ip, 2880 h
[13] = tested on: MONO-MAC-6; assay: Antitumor activity against human MONO-MAC-6 cells xenografted in NSG mouse assessed as improvement in spleen swelling by measuring spleen weight at 2 mg/kg, ip dosed for ten consecutive days (reference value: 55 mg); format: functional
[14] = tested on: MONO-MAC-6; assay: Antitumor activity against human MONO-MAC-6 cells xenografted in NSG mouse assessed as improvement in liver swelling by measuring liver weight at 2 mg/kg, ip dosed for ten consecutive days (reference value: 2200 mg); format: functional
[15] = tested on: MONO-MAC-6; assay: Antitumor activity against human MONO-MAC-6 cells xenografted in NSG mouse assessed as reduction in tumor cell transplantation efficiency at 2 mg/kg, ip dosed for ten consecutive days and measured after 40 to days post treatment; format: functional, organism-based

Chain of Alpha-ketoglutarate-dependent dioxygenase FTO (Q9C0B1 whole entry): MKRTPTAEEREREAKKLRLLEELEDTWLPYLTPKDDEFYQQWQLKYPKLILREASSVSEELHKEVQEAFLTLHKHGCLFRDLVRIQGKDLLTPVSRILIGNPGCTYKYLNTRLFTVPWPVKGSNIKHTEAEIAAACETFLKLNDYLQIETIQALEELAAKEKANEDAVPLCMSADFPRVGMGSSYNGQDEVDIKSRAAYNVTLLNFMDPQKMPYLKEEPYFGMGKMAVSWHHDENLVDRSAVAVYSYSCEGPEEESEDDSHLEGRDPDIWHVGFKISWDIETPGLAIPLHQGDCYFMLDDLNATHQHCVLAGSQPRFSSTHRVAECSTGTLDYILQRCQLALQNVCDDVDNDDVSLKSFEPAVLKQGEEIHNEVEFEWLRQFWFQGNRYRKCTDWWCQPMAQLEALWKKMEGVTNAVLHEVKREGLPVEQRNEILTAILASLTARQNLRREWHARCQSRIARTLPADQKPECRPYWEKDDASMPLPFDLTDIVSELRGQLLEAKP

Row | Compound | IC50 [1] | growth inhibition (GI) [2] | growth inhibition (GI) [3] | IC50 [4] | IC50 [5] | further results
1 | O=C(O)c1ccccc1Nc1c(Cl)cc(-c2ccn[nH]2)cc1Cl | 7.6 µM | 25% | 29% |  |  | 
2 | Cc1noc(C)c1-c1cc(Cl)c(Nc2ccccc2-c2nn[nH]n2)c(Cl)c1 |  | 26% | 23% |  |  | 
3 | O=C(O)c1ccc(-c2cc(Cl)c(Nc3ccccc3C(=O)O)c(Cl)c2)s1 | 1.2 µM |  |  |  |  | 
4 | Cc1noc(C)c1-c1cc(Cl)c(Nc2ccccc2-c2noc(=O)[nH]2)c(Cl)c1 | 1.1 µM | 100% | 100% | 5.3 µM | 5.8 µM | IC50 [6]: 6.3 µM; IC50 [7]: 9.9 µM
5 | Cc1n[nH]c(C)c1-c1cc(Cl)c(Nc2ccccc2C(=O)O)c(Cl)c1 |  | 20% | 18% |  |  | 
6 | O=C(O)c1ccccc1Nc1c(Cl)cc(-c2ccncc2)cc1Cl | 4.6 µM | 39% | 46% |  |  | 
7 | Cc1noc(C)c1-c1cc(Cl)c(Nc2ccccc2C(=O)O)c(Cl)c1 |  | 70% | 75% | 44.8 µM | 23.6 µM | 
8 | Cc1cc(C)n(-c2cc(Cl)c(Nc3ccccc3C(=O)O)c(Cl)c2)n1 | 30 to 50 µM |  |  |  |  | 
9 | Cc1noc(C)c1-c1cc(Cl)c(Nc2ccccc2C(=O)NO)c(Cl)c1 | 1.6 µM | 100% | 100% | 0.8 µM | 1.5 µM | IC50 [6]: 4.7 µM; IC50 [7]: 10.4 µM; survival at 2 mg/kg [8]: 80%; survival at 2 mg/kg [9]: 60%; survival at 2 mg/kg [10]: 40%; survival at 2 mg/kg [11]: 30%; survival at 2 mg/kg [12]: 15%; Activity [13]: 18 mg; Activity [14]: 800 mg; Activity [15]: Active
